Assay: T1 relaxation measurements (water proton relaxivity, 20 MHz NMR spectrometer, inversion-recovery)
Type: physicochemical
Details: Bo = 0.47 T, per Gd^3+ ion
Procedure: T1 Relaxation Measurements […] […] All of the three generations of cyclosiloxane-core dendrimers (polymer (A)˜(C)) were analyzed and compared with a commercial contrast agent, namely, Magnevist. […] 1, polymers (A)˜(D) for Magnetic resonance imaging (MRI) were developed. It consists of paramagnetic gadolinium ions chelated to DTPA/benzyl-DTPA molecules which in turn were attached to the peripheral of the cyclic dendritic structure.

CNC[C@H](O)[C@@H](O)[C@H](O)[C@H](O)CO.CNC[C@H](O)[C@@H](O)[C@H](O)[C@H](O)CO.O=C([O-])CN(CCN(CC(=O)[O-])CC(=O)O)CCN(CC(=O)[O-])CC(=O)O.[Gd+3] [Magnevist ™]
Relaxivity/Gd^3+ ion (ionic) r1: 4.2 (mM · s) − 1

— patent US8562953B2, “Dendritic polymers and magnetic resonance imaging contrast agent employing the same” (Industrial Technology Research Institute, priority 2007, dated 2013)
